{"source": "paper PMC4883017", "about": "(Molecular pharmaceutics, 2015)", "key": {"HepG2 cells": {"test_system": "HepG2 cells", "conditions": "human, 10 days, 30 μg/mL"}, "HIV-1ADA [1]": {"test_system": "HIV-1ADA", "experiment": "Antiviral activity in vivo, humanized PBL-NSG mouse model of HIV-1 infection", "set-up": "species or system hu-PBL NSG mice", "conditions": "three i.v. injections over 15 days, Day 15"}, "HIV-1ADA [2]": {"test_system": "HIV-1ADA", "experiment": "Reverse transcriptase inhibition in HIV-1 infected MDM", "format": "cell-based", "conditions": "total NRTI concentration 4 μg/mL, Day 10"}, "[3]": {"experiment": "Pharmacokinetics after i.v. injection", "format": "in vivo", "conditions": "plasma, Balb/c mice, means ± SD"}, "[4]": {"conditions": "cited from earlier work"}}}
{"compound": "Cc1cn([C@H]2C[C@H](N=[N+]=[N-])[C@@H](CO)O2)c(=O)[nH]c1=O", "note": "[AZT, Zidovudine]", "values": [{"measurement": "Drop of the mtDNA amount", "setting": "HepG2 cells", "value": 60, "unit": "%"}, {"measurement": "Reduction of the virus level per lymphocyte (p24/CD45)", "setting": "HIV-1ADA [1]", "value": "three-fold reduction"}, {"measurement": "10-fold virus inhibition in the infected MDM at fixed concentration", "setting": "HIV-1ADA [2]", "value": "achieved only after the treatment with nanodrugs"}, {"measurement": "AUC 0-τ", "setting": "[3]", "value": "22896 ± 85", "unit": "ng·h/mL"}, {"measurement": "AUC 0-∞", "setting": "[3]", "value": "88404 ± 786", "unit": "ng·h/mL"}, {"measurement": "CL", "setting": "[3]", "value": "3.81 ± 0.17", "unit": "mL/h"}, {"measurement": "Administered drug removed with urine", "setting": "[4]", "value": "more than 90%"}]}
